{
  "source": "patent US8574831B2",
  "about": "“Mutational profiles in HIV-1 reverse transcriptase correlated with phenotypic drug resistance” (Virco N.V., priority 2000, dated 2013)",
  "system": "HIV with mutations in the HIV protease sequence",
  "test": "Phenotypic fold resistance to protease inhibitors, protease mutations 84A/84L/84C/54M/54L/54V in a background (Examples 8-13)",
  "format": "cell-based, HIV-1",
  "summary_of_the_method": "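Fold-resistance equals chimeric-virus IC50 divided by IC50 of a parallel wild-type reference HIV-1 strain. Chimeras come from PCR-amplified PR/RT genes recombined into PR/RT-deleted HXB2 proviral DNA inside CD4+ T cells, then cultured with graded drug concentrations.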",
  "data": [
    {"smiles": "CC(C)(C)NC(=O)[C@@H]1C[C@@H]2CCCC[C@@H]2CN1C[C@@H](O)[C@H](Cc1ccccc1)NC(=O)[C@H](CC(N)=O)NC(=O)c1ccc2ccccc2n1", "note": "[Saquinavir, saquinavir]", "values": [
      {"measurement": "mean fold increase in resistance", "setting": "Table 9 #1, protease genotype WT", "result": 0.9, "unit": "fold"},
      {"measurement": "mean fold increase in resistance", "setting": "Table 9 #2, protease genotype 10I", "result": 0.9, "unit": "fold"},
      {"measurement": "mean fold increase in resistance", "setting": "Table 9 #3, protease genotype 46I", "result": 0.6, "unit": "fold"},
      {"measurement": "mean fold increase in resistance", "setting": "Table 9 #4, protease genotype 46I + 84V", "result": 2.5, "unit": "fold"},
      {"measurement": "mean fold increase in resistance", "setting": "Table 9 #5, protease genotype 46I + 84A", "result": 38.1, "unit": "fold"},
      {"measurement": "mean fold increase in resistance", "setting": "Table 9 #6, protease genotype 10I + 46I", "result": 0.5, "unit": "fold"},
      {"measurement": "mean fold increase in resistance", "setting": "Table 9 #7, protease genotype 10I + 46I + 84V", "result": 4.1, "unit": "fold"},
      {"measurement": "mean fold increase in resistance", "setting": "Table 9 #8, protease genotype 10I + 46I + 84A", "result": 48.2, "unit": "fold"},
      {"measurement": "mean fold increase in resistance", "setting": "Table 9 #9, protease genotype 10L/I + 46I + 84A", "result": 46.4, "unit": "fold"},
      {"measurement": "mean fold increase in resistance", "setting": "Table 9 #10, protease genotype 10I + 46I + 84A", "result": 42.8, "unit": "fold"},
      {"measurement": "mean fold increase in resistance", "setting": "Table 9 #11, protease genotype 46I + 71V", "result": 0.6, "unit": "fold"},
      {"measurement": "mean fold increase in resistance", "setting": "Table 9 #12, protease genotype 46I + 71V + 84V/I", "result": 0.6, "unit": "fold"},
      {"measurement": "mean fold increase in resistance", "setting": "Table 9 #13, protease genotype 46I + 71V + 84A", "result": 47.7, "unit": "fold"},
      {"measurement": "mean fold increase in resistance", "setting": "Table 9 #14, protease genotype 10F + 46I + 71V", "result": 1.9, "unit": "fold"},
      {"measurement": "mean fold increase in resistance", "setting": "Table 9 #15, protease genotype 10I + 46I + 71V + 84V", "result": 15.9, "unit": "fold"},
      {"measurement": "mean fold increase in resistance", "setting": "Table 9 #16, protease genotype 10I + 46I + 71V + 84A", "result": 48.2, "unit": "fold"},
      {"measurement": "mean fold increase in resistance", "setting": "Table 9 #17, protease genotype 10V + 46I + 71T + 84A", "result": 48.2, "unit": "fold"},
      {"measurement": "mean fold increase in resistance", "setting": "Table 9 #18, protease genotype 10I + 46I + 71V + 77I", "result": 1.3, "unit": "fold"},
      {"measurement": "mean fold increase in resistance", "setting": "Table 9 #19, protease genotype 10I + 46I + 71V + 77I + 84V", "result": 2.5, "unit": "fold"},
      {"measurement": "mean fold increase in resistance", "setting": "Table 9 #20, protease genotype 10I + 46I + 71V + 77I + 84A", "result": 47.1, "unit": "fold"},
      {"measurement": "mean fold increase in resistance", "setting": "Table 9 #21, protease genotype 10I + 33L/I + 46I + 71V + 77V/I + 84A", "result": 44.7, "unit": "fold"},
      {"measurement": "mean fold increase in resistance", "setting": "Table 10 #1, protease genotype 10I + 36I + 71V", "result": 1.6, "unit": "fold"},
      {"measurement": "mean fold increase in resistance", "setting": "Table 10 #2, protease genotype 10I + 36I + 71I + 84V", "result": 0.8, "unit": "fold"},
      {"measurement": "mean fold increase in resistance", "setting": "Table 10 #3, protease genotype 10I + 36I + 71I + 84L", "result": 10.2, "unit": "fold"},
      {"measurement": "mean fold increase in resistance", "setting": "Table 11 #1, protease genotype WT", "result": 0.9, "unit": "fold"},
      {"measurement": "mean fold increase in resistance", "setting": "Table 11 #2, protease genotype 84V", "result": 0.7, "unit": "fold"},
      {"measurement": "mean fold increase in resistance", "setting": "Table 11 #3, protease genotype 84C", "result": 26.4, "unit": "fold"},
      {"measurement": "mean fold increase in resistance", "setting": "Table 11 #4, protease genotype 10I", "result": 0.9, "unit": "fold"},
      {"measurement": "mean fold increase in resistance", "setting": "Table 11 #5, protease genotype 10I + 84V", "result": 2.7, "unit": "fold"},
      {"measurement": "mean fold increase in resistance", "setting": "Table 11 #6, protease genotype 10I + 84C", "result": 37.1, "unit": "fold"},
      {"measurement": "mean fold increase in resistance", "setting": "Table 11 #7, protease genotype 77I", "result": 0.3, "unit": "fold"},
      {"measurement": "mean fold increase in resistance", "setting": "Table 11 #8, protease genotype 77I + 84V", "result": 3.5, "unit": "fold"},
      {"measurement": "mean fold increase in resistance", "setting": "Table 11 #9, protease genotype 77I + 84C", "result": 18.1, "unit": "fold"},
      {"measurement": "mean fold increase in resistance", "setting": "Table 11 #10, protease genotype 77I + 84C", "result": 18.5, "unit": "fold"},
      {"measurement": "mean fold increase in resistance", "setting": "Table 11 #11, protease genotype 10I + 24I + 36I + 46I + 71V + 84C", "result": 46.4, "unit": "fold"},
      {"measurement": "Fold change in IC50", "setting": "Table 12, V19263, genotype 77I", "result": 0.3, "unit": "fold"},
      {"measurement": "Fold change in IC50", "setting": "Table 12, V20160, genotype WT", "result": 0.9, "unit": "fold"},
      {"measurement": "Fold change in IC50", "setting": "Table 12, V021667, genotype 10I", "result": 0.9, "unit": "fold"},
      {"measurement": "Fold change in IC50", "setting": "Table 12, V030496, genotype 10I + 77I", "result": 0.3, "unit": "fold"},
      {"measurement": "Fold change in IC50", "setting": "Table 12, V048869, genotype 10I + 54M + 77I + 90M", "result": 5.1, "unit": "fold"},
      {"measurement": "Fold change in IC50", "setting": "Table 12, V048872, genotype 33F + 54M + 77I + 90M", "result": 5.2, "unit": "fold"},
      {"measurement": "Fold change in IC50", "setting": "Table 12, V048873, genotype 33F + 54M + 77I + 90M", "result": 3.1, "unit": "fold"},
      {"measurement": "Fold change in IC50", "setting": "Table 12, V048877, genotype 10I + 33F + 77I + 90M", "result": 1.5, "unit": "fold"},
      {"measurement": "Fold change in IC50", "setting": "Table 12, V048878, genotype 10I + 33F + 54M + 71V + 77I + 90M", "result": 4.0, "unit": "fold"},
      {"measurement": "Fold change in IC50", "setting": "Table 12, V048879, genotype 10I + 33F + 54M + 71V + 77I + 90M", "result": 51.8, "unit": "fold"},
      {"measurement": "Fold change in IC50", "setting": "Table 12, V048880, genotype 10I + 33F + 77I + 90M", "result": 2.7, "unit": "fold"},
      {"measurement": "Fold change in IC50", "setting": "Table 12, V052940, genotype 71V", "result": 0.8, "unit": "fold"},
      {"measurement": "Fold change in IC50", "setting": "Table 12, V052942, genotype 10I + 71V", "result": 0.8, "unit": "fold"},
      {"measurement": "Fold change in IC50", "setting": "Table 12, V052943, genotype 10I + 90M", "result": 1.1, "unit": "fold"},
      {"measurement": "Fold change in IC50", "setting": "Table 12, V052944, genotype 10I + 90M", "result": 0.7, "unit": "fold"},
      {"measurement": "Fold change in IC50", "setting": "Table 12, V052945, genotype 77I + 90M", "result": 1.4, "unit": "fold"},
      {"measurement": "Fold change in IC50", "setting": "Table 12, V052946, genotype 71V + 90M", "result": 1.4, "unit": "fold"},
      {"measurement": "Fold change in IC50", "setting": "Table 12, V052947, genotype 10I + 77I + 90M", "result": 3.9, "unit": "fold"},
      {"measurement": "Fold change in IC50", "setting": "Table 12, V052948, genotype 10I + 71V + 90M", "result": 4.8, "unit": "fold"},
      {"measurement": "Fold change in IC50", "setting": "Table 12, V052949, genotype 10I + 71V + 77I + 90M", "result": 2.1, "unit": "fold"},
      {"measurement": "Fold change in IC50", "setting": "Table 12, V052950, genotype 33F", "result": 1.2, "unit": "fold"},
      {"measurement": "Fold change in IC50", "setting": "Table 12, V052951, genotype 33F + 77I", "result": 0.4, "unit": "fold"},
      {"measurement": "Fold change in IC50", "setting": "Table 12, V052953, genotype 10I + 33F + 77I", "result": 1.2, "unit": "fold"},
      {"measurement": "Fold change in IC50", "setting": "Table 12, V052954, genotype 33F + 77I + 90M", "result": 1.7, "unit": "fold"},
      {"measurement": "Fold change in IC50", "setting": "Table 12, V052955, genotype 33F + 71V + 90M", "result": 20.4, "unit": "fold"},
      {"measurement": "Fold change in IC50", "setting": "Table 12, V052977, genotype 10I + 33F + 54M", "result": 0.5, "unit": "fold"},
      {"measurement": "Fold change in IC50", "setting": "Table 12, V052978, genotype 10I + 33F + 54M + 71V + 90M", "result": 9.9, "unit": "fold"},
      {"measurement": "Fold change in IC50", "setting": "Table 12, V052979, genotype 10I + 54M", "result": 1.4, "unit": "fold"},
      {"measurement": "Fold change in IC50", "setting": "Table 12, V052980, genotype 10I + 54M + 90M", "result": 1.4, "unit": "fold"},
      {"measurement": "Fold change in IC50", "setting": "Table 12, V052981, genotype 10I + 54M + 71V + 90M", "result": 5.4, "unit": "fold"},
      {"measurement": "Fold change in IC50", "setting": "Table 12, V052982, genotype 10I + 54M + 71V + 77I + 90M", "result": 4.2, "unit": "fold"},
      {"measurement": "Fold change in IC50", "setting": "Table 12, V053832, genotype 10I + 33F", "result": 0.5, "unit": "fold"}
    ]}
  ]
}
